Measurements as given in PubChem BioAssay AID493130 (Broad Institute, 2011).
Inconclusive results are not listed. Calls of active or inactive are those of the source.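 Rule for the calls: active = signal-lowering compounds whose fitted half-maximal concentration is at most ten times their highest tested dose; inconclusive = flat fit between -30 and -70%, or poor fit; inactive = flat within 30%, signal rising, or potency beyond limit.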

These molecules were tested against POS-1 (Caenorhabditis elegans) binding to mex-3 RNA (assay: C. elegans POS-1 RNA interaction disruptors – biochemical, fluorescence polarization, cherry-picked samples, set 2, counter-screen for MEX-5 RNA-binding inhibitor project, dose response (AID 493130;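 note: POS-1 as maltose binding protein fusion made in E. coli with FITC RNA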)). Conditions: POS-1/mex-3 RNA fluorescence polarization, 1 h.

Row | Structure (SMILES) | AC50
1 | O=C(O[C@@H]1OC2COC(=O)c3cc(O)c(O)c(O)c3-c3c(cc(O)c(O)c3O)C(=O)O[C@@H]([C@H]1O)[C@@H]2O)c1cc(O)c(O)c(O)c1 | 2.27 µM
2 | O=[N+]([O-])c1ccc(NCc2ccccc2)c2nonc12 | 0.434 µM
3 | O=C(O)C1Nc2c(Cl)cc(Cl)cc2C2C=CCC12 (stereo unspecified) | 5.13 µM
4 | CC1CC(=O)c2c(cc3c(-c4c(O)cc(O)c5c(O)c6c(cc45)OC(C)CC6=O)c(O)cc(O)c3c2O)O1 (stereo unspecified) | 8.29 µM
5 | Nc1nnc(CC(=O)N/N=C/c2cc([N+](=O)[O-])cc(Br)c2O)s1 | 6.03 µM
6 | O=C(O)c1ccc(Cl)c2c1C1C=CCC1C(c1ccccn1)N2 (stereo unspecified) | 8.69 µM
7 | COc1ccc(N=Nc2nc3ccc(Br)cc3n2C)cc1 | 2.16 µM
8 | Cc1ccc(O)c(C(=O)c2cc(C#N)c(=O)n(-c3nccs3)c2)c1 | 4.09 µM
9 | O=c1nc2c(O)cccn2c2c1c(=O)[nH]c1ccccc12 | 2.46 µM
10 | COc1ccc2c(c1)NP(=S)(Oc1ccccc1)N2 (stereo unspecified) | 6.91 µM
11 | O=C(O)c1ccccc1NS(=O)(=O)c1cccc(-n2sc3ccccc3c2=O)c1 | 8.72 µM
12 | O=C1N=c2ccccc2=C1c1sc(=S)n(NC(=O)c2ccccc2)c1O | 8.56 µM
13 | O=C(N/N=C/c1c(O)n(Cc2ccccc2)c(=O)[nH]c1=O)c1ccccc1O | 4.84 µM
14 | O=C(c1ccc(Cl)cc1)C1C2C(=O)N(c3ccccc3)C(=O)C2C2CCCN21 (stereo unspecified) | 5.95 µM
15 | CCc1cc[n+](-c2nc3ccccc3nc2[N-]S(=O)(=O)c2ccc(Br)s2)cc1 | 1.25 µM
16 | O=C1C(Cl)=C(NC(=O)c2ccccc2)C(=O)C(Cl)=C1NC(=O)c1ccccc1 | 10.2 µM

Same assay, conditions: POS-1/mex-3 RNA fluorescence polarization, 1 h; at 10 µM (top of the series)

Row | Structure (SMILES) | activity change, negative = inhibition
17 | CN(C)c1ccc(/C=C(\C#N)C(=O)c2ccccc2)cc1 | inactive
18 | Cc1cccn2c(=O)c3cc(C(=O)NC(C)C)c(=N)n(Cc4ccncc4)c3nc12 | inactive
19 | C#CCOCCOCCOCCNc1nc(N2CCN(C(=O)[C@H](CCCCN)n3cc(C(N)CO)nn3)CC2)nc(N2CCN(C(=O)[C@H](CCC(=O)O)n3cc(C(N)CC(C)C)nn3)CC2)n1 (stereo partly specified) | inactive
20 | COc1ccc2c(c1)NC(c1ccc(N(C)C)cc1)c1cccn1-2 (stereo unspecified) | inactive
21 | Cc1c(C#N)c(O)n(CCO)c(=O)c1N=Nc1ccccc1 | inactive
22 | O=Nc1[nH]c(=O)c(/C=C(\O)c2ccccc2)nc1NO | inactive
23 | Cc1cc(=O)oc(C)c1C(=O)Nc1c(C)n(C)n(-c2ccccc2)c1=O | inactive
24 | CN=c1scc(-c2ccco2)n1/N=C/c1ccc(O)c(O)c1 | inactive
25 | Cc1cc(=O)[nH]c(SCc2nc3ccc([N+](=O)[O-])cc3[nH]2)n1 | inactive
26 | Cc1cc(C)c([C@@H]2C[C@H]3CN(C4CCCC4)C(=O)[C@]34CCCN24)c(-n2cccn2)c1 | inactive
27 | O=C(CCN1C(=O)/C(=C/c2ccccc2Cl)SC1=S)NNC(=O)c1ccccc1O | inactive
28 | COc1cc(OC)c2ccc(=O)oc2c1C(CC(=O)N1CCCC1)c1ccc(N(C)C)cc1 (stereo unspecified) | inactive
29 | O=C(N/N=C/c1ccncc1)c1cc([N+](=O)[O-])cc([N+](=O)[O-])c1O | inactive
30 | CCCCN(CCCC)CCNC(=O)CNC(=O)c1cccs1 | inactive
31 | Cc1cccc(C(=O)NNc2ncnc3c2cnn3C)c1 | inactive
32 | CCOC(=O)NC(=O)/C(C#N)=C\Nc1sccc1C(=O)OC | inactive
33 | COc1ccccc1OCC(=O)NNC(=O)c1cnccn1 | inactive
34 | Cc1ccccc1C(=O)N=c1ccn(-c2nc3ccccc3nc2NS(=O)(=O)c2ccccc2)cc1 | inactive
35 | COc1cc(N2CCCC2)c(OC)cc1/C=C(/C#N)c1cccc(Br)c1 | inactive
36 | CCCc1cc(C(=O)Cc2ccc(C(=O)OCC)o2)c(O)cc1O | inactive
37 | FC(F)(F)c1nc2cc3nc4ccccc4[nH]c3cc2n1 | inactive
38 | O=C(NC1CCSc2ccccc21)c1ccc([N+](=O)[O-])cc1 (stereo unspecified) | inactive
39 | N#CC(C(=O)NC1CC1)c1nc2ccccc2nc1N1CCN(C/C=C/c2ccccc2)CC1 (stereo unspecified) | inactive
40 | COc1cc(/C=N/NC(=O)c2ccc(=O)[nH]n2)ccc1O | inactive
41 | COc1ccc(OC)c(/C=N/NC(=O)c2ccc(=O)[nH]n2)c1 | inactive

Row | Structure (SMILES) | activity change, negative = inhibition
42 | Cc1cc(C(=O)N/N=C/c2ccc(-c3ccc(C)c(Cl)c3)o2)n[nH]1 | inactive
43 | Cc1cc([N+](=O)[O-])nn1CC(=O)NNC(=S)Nc1ccc(F)cc1 | inactive
44 | COc1cc2c(cc1N/C=C(\C#N)c1nc(-c3ccc(F)cc3)cs1)oc1ccccc12 | inactive
45 | O=C1N=C(N2C=CC(=C3C=CNC=C3)C=C2)/C(=C/N=NC(=O)c2ccccc2)S1 | inactive
46 | CC(=O)c1c2c3c(c(Br)ccc3n(C)c1=O)C(=O)c1ccccc1-2 | inactive
47 | O=c1[nH]cnc2c1C(c1ccccc1[N+](=O)[O-])c1c(nc[nH]c1=O)O2 | inactive
48 | COc1ccc(N(C(=O)CCl)C(C)(C(=O)Nc2c(C)cccc2C)c2ccccn2)cc1 (stereo unspecified) | inactive
49 | COc1ccc(CCNc2c3ccccc3nc3ccccc23)cc1OC | inactive
50 | COc1ccc(N(CCC#N)C(=O)/C(C#N)=C/c2cccs2)cc1 | inactive
51 | CCCCN(C(=O)C1=COCCO1)c1c(N)n(Cc2ccccc2)c(=O)[nH]c1=O | inactive
52 | CN1CN(C)c2ccc([N+](=O)[O-])c3cccc1c23 | inactive
53 | O=C(N/N=C/c1cccnc1)c1ccc(O)cc1 | inactive
54 | Cc1ccc(C(=O)N/C(=C\c2ccc(-c3ccc(Cl)cc3)o2)C(=O)NCCCN(C)C)cc1 | inactive
55 | CCN(CC)c1ccc(C(=O)N/N=C(\C)c2cccnc2)cc1 | inactive
56 | COc1cc(/C=N/NC(=S)Nc2cccc(C(=O)O)c2)ccc1O | inactive
57 | O=C(NNC(=O)c1ccc([N+](=O)[O-])o1)c1ccccc1 | inactive
58 | CC(=O)Nc1ccc(/C=C/c2nc(-c3ccccc3O)n[nH]2)cc1 | inactive
59 | O=C(O)c1cc(Oc2ccc(C(F)(F)F)cc2Cl)ccc1[N+](=O)[O-] | inactive
60 | Cc1ccc(S(=O)(=O)c2cc3c(=O)n4ccccc4nc3n(C3CCCCC3)c2=N)cc1 | inactive
61 | C=CCn1c(Cc2nc3ccc(Cl)cc3[nH]2)n[nH]c1=S | inactive
62 | Cc1cccc(-n2c(N)c(-c3nc4ccccc4n3C)c3nc4ccccc4nc32)c1 | inactive
63 | COc1ccc(C[C@@H]2c3cc(O)c(OC)cc3CCN2C)cc1O | inactive
64 | CCOc1cc(/C=N/Nc2nc(=O)[nH]nc2C)ccc1O | inactive
65 | O=C(C1=NN(c2ccccc2)C2C(=O)N(c3ccccc3)C(=O)C12)c1ccccc1 (stereo unspecified) | inactive
66 | Cc1ccc(-c2cc(C(=O)O)c3cc(Br)ccc3n2)o1 | inactive

Row | Structure (SMILES) | activity change, negative = inhibition
67 | CN(C)C(=O)Oc1ccc2c(c1)O/C(=C\c1ccccc1)C2=O | inactive
68 | COc1c(OC2OC(C(=O)O)C(O)C(O)C2O)cc(O)c2c(=O)cc(-c3ccccc3)oc12 (stereo unspecified) | inactive
69 | CCc1ccc(/C=C2\Oc3cc(OS(C)(=O)=O)ccc3C2=O)cc1 | inactive
70 | CCOC(=O)Cc1csc(NC(=O)c2sc3nc4ccc(CC)cc4cc3c2N)n1 | inactive
71 | CCN(CC)c1ccc2nc3ccccc3[n+](CC)c2c1 | inactive
72 | COc1ccc(N/C=C/C(=O)c2ccc3c(c2)OCO3)cc1OC | inactive
73 | O=C(C[n+]1ccc(C(=O)N/N=C/c2ccc(OCc3ccccc3)cc2)cc1)c1ccccc1 | inactive
74 | CCOC(=O)c1ccc(NC(=O)C(=O)NCc2ccc(/C=C(/C#N)C(=O)NCCOC)o2)cc1 | inactive
75 | CCOC(=O)C1=C(C)N=c2s/c(=C\c3cccn3C)c(=O)n2C1c1cccc(OC)c1OC (stereo unspecified) | inactive
76 | COCCNc1ncnc2nc[nH]c12 | inactive
77 | O=C(O)c1cccc(NC2=C(Cl)C(=O)c3ccccc3C2=O)c1 | inactive
78 | CCn1c(C)nc2c1C(=O)c1ccccc1C2=O | inactive
79 | O=c1c(OC2OC(CO)C(O)C(O)C2O)c(-c2ccc(O)c(O)c2)oc2cc(O)cc(O)c12 (stereo unspecified) | inactive
80 | COc1ccc(CC(=O)NNc2ncnc3c2cnn3C)cc1OC | inactive
81 | C/C=C(\C)CN1CCC(n2nccc2NC(=O)CCCc2ccccc2)CC1 | inactive
82 | Cc1ccc(C(=O)NNc2ncnc3c2cnn3C)cc1 | inactive
83 | CC(=O)Nc1ccc(N=NC2C(=O)N(C(N)=S)N=C2C)cc1 (stereo unspecified) | inactive
84 | Cc1ccc(S(=O)(=O)c2cc3c(=O)n4ccccc4nc3n(Cc3ccco3)c2=N)cc1C | inactive
85 | Cc1cc(C)c2ccc(=S)[nH]c2n1 | inactive
86 | CCc1nnc2c(N(C)C)nc3ccccc3n12 | inactive
87 | FC(F)(F)c1ccc(Cl)c(-n2c(-c3cc(-c4ccco4)[nH]n3)n[nH]c2=S)c1 | inactive
88 | CN1CN(C)c2cccc3cccc1c23 | inactive
89 | Cc1ccc2cc(C#N)c(N3CCCN(C(=O)C4CCCO4)CC3)nc2c1C (stereo unspecified) | inactive
90 | CS(=O)(=O)Nc1ccc(-c2ccc(/C=C3\SC(N)=NC3=O)o2)cc1 | inactive
91 | CCN(CC)c1ccc(/C=N/N2CCN(c3ccccc3OC)CC2)cc1 | inactive
